Measurements: patent US5288725A, “Pyrroloquinoline Bradykinin antagonist” (Merck & Co., Inc., priority 1992, dated 1994)
Where no end group is shown, it is not given here.

Columns and labels:
[1] = molecular target: cholinergic muscarinic receptors; assay: [3H] Quinuclidinyl benzilate binding, rat cerebral cortex membranes
α1-adrenergic receptor = α1-adrenergic receptor activity in rabbit aorta (agonist norepinephrine)
Description: (§1) Antagonism of BK-β1 receptors was measured using spiral strips of rabbit thoracic aorta as described by Regoli et. al., Eur. J. Pharmacol., 127,219 (1986).
(§2) The α1 -adrenergic and H1 histaminergic receptor activity of compounds were also assessed using rabbit aorta with norepinephrine and histamine, respectively, as agonists.

α1-adrenergic receptors = assay: [3H] Prazosin radioligand binding, rat brain
BK β2 receptor = molecular target: T1, BK β2 receptor (Cavia porcellus, UniProt O70526); assay: [3H] BK radioligand binding, guinea pig ileum membranes; conditions: read-out: IC50, inhibition of [3H] BK binding
T1 construct: from tissue; host or cells: guinea pig ileum membranes
T1 sequence (O70526 1-372): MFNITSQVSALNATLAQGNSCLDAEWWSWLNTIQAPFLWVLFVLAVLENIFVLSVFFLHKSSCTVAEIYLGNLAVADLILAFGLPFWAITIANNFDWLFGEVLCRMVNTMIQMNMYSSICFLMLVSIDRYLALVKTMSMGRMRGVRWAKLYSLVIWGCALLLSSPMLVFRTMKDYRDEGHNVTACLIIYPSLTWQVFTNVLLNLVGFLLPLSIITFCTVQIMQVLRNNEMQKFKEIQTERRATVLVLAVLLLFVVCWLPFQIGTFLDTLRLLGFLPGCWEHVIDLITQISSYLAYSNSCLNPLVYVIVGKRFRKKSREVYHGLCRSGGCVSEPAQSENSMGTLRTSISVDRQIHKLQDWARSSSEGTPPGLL

[2] = molecular target: T2, cholinergic muscarinic receptors (Rattus norvegicus, UniProt P10980); assay: [3H] Quinuclidinyl benzilate binding, rat cardiac membranes
T2 construct: rat cardiac membranes; from tissue; host or cells: rat cardiac membranes
T2 sequence (P10980 1-466): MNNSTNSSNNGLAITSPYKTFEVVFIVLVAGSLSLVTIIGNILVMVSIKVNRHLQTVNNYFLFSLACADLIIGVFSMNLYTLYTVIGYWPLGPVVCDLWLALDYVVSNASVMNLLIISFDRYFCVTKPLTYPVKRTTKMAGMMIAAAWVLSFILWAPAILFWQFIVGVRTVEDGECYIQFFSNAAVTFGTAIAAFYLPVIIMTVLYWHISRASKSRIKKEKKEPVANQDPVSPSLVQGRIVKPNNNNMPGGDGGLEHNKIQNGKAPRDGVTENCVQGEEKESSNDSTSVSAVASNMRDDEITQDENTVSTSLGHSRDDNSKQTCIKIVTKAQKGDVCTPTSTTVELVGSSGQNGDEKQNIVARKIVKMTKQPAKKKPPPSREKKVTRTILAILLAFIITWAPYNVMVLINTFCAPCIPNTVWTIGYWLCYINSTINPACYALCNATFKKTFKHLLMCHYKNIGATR

BK-β1 receptors = molecular target: T3, BK-β1 receptors (Oryctolagus cuniculus, UniProt P48748); assay: Antagonism of BK-β1 receptors, spiral strips of rabbit thoracic aorta (agonist des Arg9-BK); conditions: Schild analysis
T3 construct: spiral strips of rabbit thoracic aorta; from tissue; host or cells: rabbit thoracic aorta spiral strips
T3 sequence (P48748 1-352): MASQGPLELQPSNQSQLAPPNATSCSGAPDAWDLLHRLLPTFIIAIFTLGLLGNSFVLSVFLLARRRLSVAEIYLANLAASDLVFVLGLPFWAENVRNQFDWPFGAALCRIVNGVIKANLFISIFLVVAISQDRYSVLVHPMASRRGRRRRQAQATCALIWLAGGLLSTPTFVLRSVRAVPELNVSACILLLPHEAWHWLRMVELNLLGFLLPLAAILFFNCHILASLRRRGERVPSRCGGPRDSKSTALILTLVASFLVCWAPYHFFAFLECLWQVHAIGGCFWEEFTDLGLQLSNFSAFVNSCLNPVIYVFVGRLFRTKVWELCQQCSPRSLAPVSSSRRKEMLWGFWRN
Description: as §1

[3] = molecular target: T4, cholinergic muscarinic receptors (Cavia porcellus, UniProt H0VRN8); assay: [3H] Quinuclidinyl benzilate binding, guinea pig ileum membranes
T4 construct: guinea pig ileum membranes as described by Watson; from tissue; host or cells: guinea pig ileum membranes
T4 sequence (H0VRN8 1-466): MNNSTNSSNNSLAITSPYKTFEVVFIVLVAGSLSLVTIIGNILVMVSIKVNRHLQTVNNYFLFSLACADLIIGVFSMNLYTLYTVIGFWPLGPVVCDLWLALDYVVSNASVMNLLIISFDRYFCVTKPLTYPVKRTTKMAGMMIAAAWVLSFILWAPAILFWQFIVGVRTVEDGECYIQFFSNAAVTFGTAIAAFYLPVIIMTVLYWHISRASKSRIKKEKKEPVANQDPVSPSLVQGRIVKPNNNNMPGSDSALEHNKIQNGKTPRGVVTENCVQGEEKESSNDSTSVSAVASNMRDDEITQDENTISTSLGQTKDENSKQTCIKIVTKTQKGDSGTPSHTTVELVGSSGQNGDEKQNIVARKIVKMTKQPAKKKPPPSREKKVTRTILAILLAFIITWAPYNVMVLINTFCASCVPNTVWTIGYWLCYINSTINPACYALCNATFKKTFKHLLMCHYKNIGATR

histamine H1 receptor = assay: H1 histaminergic receptor activity in rabbit aorta (agonist histamine)
Description: as §1, §2

[4] = test system: bradykinin receptors of rat vas deferens; conditions: cited from earlier work
β2 receptors = conditions: cited from earlier work
β1 receptor = conditions: compared with BK; cited from earlier work

## CC(C)=CCNC(=N)NCCC[C@@H]1Nc2ccc(C(=O)OC/C(C)=C/CNC(=N)N)cc2[C@@H]2[C@H]1CCN2C(=N)NCC=C(C)C (relative stereo) [Compound I]
[1]
  IC50: 100 nM
α1-adrenergic receptor
  mode of antagonism, α1 receptor: competitive antagonist
  pA2 value, α1 receptor: 7.1
α1-adrenergic receptors
  IC50: 60 nM
BK β2 receptor
  IC50: 200 nM
[2]
  IC50: 100 nM
BK-β1 receptors
  mode of antagonism, β1 receptor: competitive β1 receptor antagonist
BK-β1 receptors; read-out: pA2 value, β1 receptor (converted)
  Kb: 2000 nM
[3]
  IC50: 100 nM
Histamine H1 receptor
  mode of antagonism, histamine H1 receptor: competitive antagonist
  pA2 value, histamine H1 receptor: 5.9

## des-Arg^9 -bradykinin
[4]; rat vas deferens
  pre- or postsynaptic BK like responses: inactive
β2 receptors
  activity at β2 receptors: relatively inactive
β1 receptor
  β1 receptor agonist potency: higher potency than BK

## RPPGFSPFR [BK]
[4]; isolated rat vas deferens
  musculotropic or postjunctional action: contracted the smooth muscle generating an increased muscle tone
[4]; isolated rat vas deferens, electrically driven twitches
  neurogenic or presynaptic effect: potentiated the magnitude of the muscular response to the electrically driven twitches
